Source: patent US9315544B2, “Method of treating eosinophilia by administering an immunomodulating peptide” (National Tsing Hua University, priority 2012, dated 2016)

Assays:
[1] = tested on: bronchial epithelial cell; conditions: cited from earlier work
CCL-11 = test: Cytokine ELISA of lung protein extract (CCL-11); type: in vivo, BALB/c mouse; conditions: eIN+mIT, mIT+eIN and eIN+mIT+eIN groups
Source text: FIG. 4 illustrates experimental design. All groups except control group were immunized with mite crude extract allergen on days 1 and 8, then mite crude extract allergen intratracheally on day 15 in all mite treated group, BALB/c mouse were divided into six groups (1) control group (PBS), (2) mites delivered intratracheally (mIT, mite on day 15) alone, (3) CMP intranasal (eIN, CMP on days 1 to 22) alone, (4) preventive-treatment group (eIN+mIT, CMP on days 1 to 14, mite on day 15) (5) therapy-treatment group (mIT+eIN, mite on day 15, CMP on days 15 to 22), and (6) preventive- and therapeutic-treatment group (eIN+mIT+eIN, CMP on days 1 to 22, mite on day 15).
FIG. 9 illustrates inhibitory effect of CMP on lung protein extract. Lung protein extracts from different groups of mouse were assayed for the indicated cytokines. Data represent one of three independent experiments. Levels of CCL-11, IL-5, IL-13 and IL-17A/F levels in lung protein extracts from mouse from treatment groups were measured by Enzyme-linked immunosorbent assay (ELISA). Each result was expressed as the mean±S.D., n=4. **, P<0.01, ***, P<0.001. […]
Levels of cytokines from lung protein extract were measured by ELISA. […] The microplates were read at 450 nm with an ELISA reader (Thermo Labsystems, Waltham, Mass., USA). […]

CCL11 = test: Cytokine mRNA expression analysis by quantitative real-time PCR (CCL11); type: cell-based; conditions: Beas-2B cells
Procedure: FIG. 1A-1B illustrates immunomodulatory effect of CMP on transcription of cytokine. Beas-2B cells were starved with serum free medium for 24 h, followed by stimulation with refold 5 μM ECP or 5 μM CMP or co-treatment with 5 μM ECP and 5 μM CMP at 37° C. for (A) 6 h and (B) 12 h, respectively. The mRNA quantities of CCL11, CCL24 and CCL26 were determined by real-time PCR. Beas-2B cells without protein treatment were used as control. […] The data represented at least three independent experiments and the error bar was shown as standard deviation (SD).
For inflammatory cytokine expression analysis, Beas-2B cells were stimulated with three different conditions: 1) 5 μM ECP, 2) 5 μM CMP and 3) co-incubated with 5 μM ECP and 5 μM CMP at 37° C. for 6 and 12 h. After incubation, total RNAs were extracted with RNA TRIzol reagent (Invitrogen, Inc) and reverse transcribed with MoMLV-reverse transcriptase (Promega, Madison, Wis.). SYBR Green-based quantitative real-time PCR will be used to quantify the gene of interest, relative expression ratios of genes of interest were normalized to glyceraldehyde-3-phosphate dehydrogenase (GAPDH) transcripts. Changes in cytokine expression were measured by quantitative real-time PCR (qRT-PCR) employing the StepOne™ amplification and detection system (Life Technologies Corporation). Data were analyzed by application of the StepOne™ quantification program software (version 2.22, Life Technologies Corporation) and expressed as means±S.D. Significance analysis was carried out by a two-sample unequal variance t-test with two-tailed distribution (post test). Significance was set as P<0.05.
ECP, the best known marker protein of asthma, is involved in triggering cytokine expression in bronchial epithelial cells. Real-time PCR analysis was carried out to quantify expression levels of indicated cytokines upon treatment with recombinant ECP in the presence and absence of CMP Bronchial epithelial Beas-2B cells were separately cultured in serum-free medium in the presence of 5 μM ECP, 5 μM CMP and both 5 μM ECP and 5 μM CMP for 6 and 12 h to monitor cytokine and chemokine gene modulation using real-time quantitative PCR. Untreated Beas-2B cells incubated at the same condition for 6 h and 12 h were used as negative controls. Here variation of gene expression levels of chemokines including CCL11, CCL24 and CCL26 was analyzed.

Sequence: NYRWRCKNQN (CMP)
- cytotoxic effect on bronchial epithelial cell [1]: no cytotoxic effect
- CCL-11 in lung protein extract compared with mIT group (CCL-11): lower concentrations
- effect on chemokine gene expression (CCL11, CCL24, CCL26) (CCL11; 5 μM CMP alone, 6 and 12 h): no effect
- ECP-induced gene expression of CCL11 (CCL11; co-treatment 5 μM ECP and 5 μM CMP, 6 h): significant reduction
